# Results from PMC11156954, “Inhibition and transport mechanisms of the ABC transporter hMRP5” (Nature Communications, 2024).
# Like-named read-outs stand apart in the source and are kept apart here.
# What was measured:
# MRP5 [1] = settings: reducing expression of endogenous MRP5; drug and, for 5-fluorouracil, its metabolites; ref [24],[25]; cited from earlier work
# From the text: Patients with high hMRP5 levels tend to have a worse survival rate than those with low expression[20]–[22]. Further, overexpression of hMRP5 is a strong predictor of poor outcomes in cancer patient cohorts[19],[22],[23].
# hMRP5 = tested on: hMRP5; parameters: method as in 2 sources, ref [15]–[18] = [15]; PMID 28277541; doi:10.1038/cddis.2017.53; 15. Hou Y The FOXM1-ABCC5 axis contributes to paclitaxel resistance in nasopharyngeal carcinoma cells Cell Death Dis. 2017 8 e2659 10.1038/cddis.2017.53 28277541 PMC5386553 || [16]; PMID 26975227; doi:10.1038/tpj.2016.17; 16. Lal S Pharmacogenetics of ABCB5, ABCC5 and RLIP76 and doxorubicin pharmacokinetics in Asian breast cancer patients Pharmacogenomics J. 2017 17 337 343 10.1038/tpj.2016.17 26975227 || [17]; PMID 15897250; doi:10.1158/1535-7163.MCT-04-0291; 17. Pratt S The multidrug resistance protein 5 (ABCC5) confers resistance to 5-fluorouracil and transports its monophosphorylated metabolites Mol. Cancer Ther. 2005 4 855 863 10.1158/1535-7163.MCT-04- || [18]; PMID 10840050; doi:10.1073/pnas.120159197; 18. Wijnholds J Multidrug-resistance protein 5 is a multispecific organic anion transporter able to transport nucleotide analogs Proc. Nat. Acad. Sci. USA 2000 97 7476 7481 10.1073/pnas.120159197 1084 ||| ref [18] = [18]; PMID 10840050; doi:10.1073/pnas.120159197; 18. Wijnholds J Multidrug-resistance protein 5 is a multispecific organic anion transporter able to transport nucleotide analogs Proc. Nat. Acad. Sci. USA 2000 97 7476 7481 10.1073/pnas.120159197 1084; settings: cited from earlier work; for efflux by hMRP5 / contribution to drug resistance, in words: anticancer drugs, ref [15]–[18]
# hMRP5-Δ1-94 = target: T1, hMRP5-Δ1-94 (Homo sapiens, UniProt O15440); experiment: MST binding assay, hMRP5-Δ1-94; settings: for binding affinity to hMRP5, in words: MST, digitonin-purified hMRP5-Δ1-94, 15 min at room temperature
# T1 construct: The codon-optimized full-length human ABCC5 gene encoding the MRP5 protein (UniProt ID: O15440); 8xHis (C); 2xstrep (C); made in house; host or cells: HEK293F
# T1 sequence (O15440 95-1437 limits assumed, stated change not applied): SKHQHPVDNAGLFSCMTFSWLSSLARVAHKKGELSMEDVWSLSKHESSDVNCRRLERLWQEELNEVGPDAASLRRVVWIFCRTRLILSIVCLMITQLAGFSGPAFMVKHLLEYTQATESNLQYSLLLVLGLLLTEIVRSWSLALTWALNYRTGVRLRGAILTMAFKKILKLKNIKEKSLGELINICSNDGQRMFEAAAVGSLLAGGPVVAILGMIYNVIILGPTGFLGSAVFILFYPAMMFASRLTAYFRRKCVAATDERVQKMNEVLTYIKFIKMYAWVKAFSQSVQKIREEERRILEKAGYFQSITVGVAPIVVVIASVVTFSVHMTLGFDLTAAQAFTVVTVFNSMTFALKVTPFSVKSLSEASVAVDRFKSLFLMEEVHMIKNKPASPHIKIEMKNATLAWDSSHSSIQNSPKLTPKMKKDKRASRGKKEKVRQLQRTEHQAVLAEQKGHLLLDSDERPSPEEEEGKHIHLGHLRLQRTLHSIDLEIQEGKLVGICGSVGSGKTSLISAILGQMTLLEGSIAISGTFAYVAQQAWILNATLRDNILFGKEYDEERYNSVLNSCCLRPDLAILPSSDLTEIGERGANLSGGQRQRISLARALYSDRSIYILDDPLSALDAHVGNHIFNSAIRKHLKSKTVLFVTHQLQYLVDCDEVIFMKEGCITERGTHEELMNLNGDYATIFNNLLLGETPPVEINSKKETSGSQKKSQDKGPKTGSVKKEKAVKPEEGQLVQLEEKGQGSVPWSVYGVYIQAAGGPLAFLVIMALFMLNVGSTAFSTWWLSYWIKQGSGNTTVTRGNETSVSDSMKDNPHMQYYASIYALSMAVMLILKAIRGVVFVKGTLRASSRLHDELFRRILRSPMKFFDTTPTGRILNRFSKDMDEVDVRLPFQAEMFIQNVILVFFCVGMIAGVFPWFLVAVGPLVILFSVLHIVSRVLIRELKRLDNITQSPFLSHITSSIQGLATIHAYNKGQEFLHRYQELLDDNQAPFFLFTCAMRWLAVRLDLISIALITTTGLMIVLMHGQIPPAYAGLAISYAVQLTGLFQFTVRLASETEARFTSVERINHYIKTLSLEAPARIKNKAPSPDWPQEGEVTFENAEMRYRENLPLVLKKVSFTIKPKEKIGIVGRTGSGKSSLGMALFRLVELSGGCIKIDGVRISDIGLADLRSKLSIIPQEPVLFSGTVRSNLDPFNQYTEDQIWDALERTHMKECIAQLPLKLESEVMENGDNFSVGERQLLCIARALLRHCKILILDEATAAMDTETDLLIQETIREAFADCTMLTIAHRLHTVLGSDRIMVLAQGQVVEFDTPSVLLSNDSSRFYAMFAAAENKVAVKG
# Method: We monitored the binding of different peptides to digitonin-purified hMRP5-Δ1-94-8xHis by MST assay (Monolith NT). HEPES buffer was used to replace Tris buffer during protein purification in the MST assay. The purified protein was mixed with RED-tris-NTA 2nd Generation dye (NanoTemper, MO-L018). Next, serially diluted peptides were mixed with the labeled protein. The mixtures were incubated for 15 min at room temperature, then the capillaries were loaded and the samples were assessed at 3% LED/excitation power and medium MST power. All peptides used in this study were synthesized in GL Biochem (Shanghai). The peptide sequence is provided as Source Data 5. The MST data were analyzed with MO.Affinity Analysis software.
# GFP-hMRP5 = experiment: Doxorubicin transport assay in Xenopus laevis oocytes; type: cell-based, human; settings: no peptide, 200 μM doxorubicin, 180 min, Kulori buffer pH 7.4, final 50 μl extract, LC-MS, *P = 0.0190 blank vs GFP-hMRP5
# Method: The transport assay was essentially done and modified as described. In brief, the cRNAs of C-terminal GFP-tagged hMRP5 and C-terminal mcherry-tagged M5PI were prepared from the linearized pcs2CAG vector DNA templates using the mMESSAGE mMACHINE T7 transcription system (Thermo Scientific, AM1344). Xenopus oocytes were injected with approximately 30 nl of cRNA (GFP-tagged hMRP5 and mcherry-tagged M5PI have the equal quantity 30 ng) or water after maintained in ND96 solution (96 mM NaCl, 2 mM KCl, 1 mM MgCl2, 1.8 mM CaCl2, 5 mM HEPES, pH 7.4) overnight. After 3 days of culture, the GFP and mcherry fluorescence of oocytes was detected using Nikon Confocal A1R, and oocytes showing similar fluorescence intensity were selected for assay. Then, oocytes were pre-incubated in Kulori buffer (90 mM NaCl, 1 mM KCl, 1 mM MgCl2, 5 mM HEPES, pH 7.4) for 5 min before being transferred to 1 ml Kulori buffer containing 200 μM doxorubicin for 180 min. The assay was stopped by removing the buffer and then washed with Kulori buffer at least 3 times and transferred into 1.5 ml tubes (3 oocytes per tube). Excess washing buffer was removed from the tube, and then 50 μl 50% methanol was added to the tube for oocyte homogenization by pipetting. The homogenized samples were centrifuged at 10,000 × g for 10 min at 4 °C, and the supernatants were transferred into new tubes and incubated at −20 °C until further analysis. The samples were acquired with a Q Exactive mass spectrometer coupled with UltiMate 3000 liquid chromatography system (Thermo scientific, CA, USA) after centrifugation at 20,000 × g for 15 min at 4 °C. A Hypersil GOLDTM C18 column (2.1 ×100 mm, 1.9 μm, Thermo Scientific) was used at a flow rate of 0.3 ml min^−1 for separation. Mobile phase A was 0.1% formic acid, while mobile phase B was acetonitrile modified with 0.1% formic acid. The mass spectrometer was operated in positive mode with a spray voltage of 3.5 kV. Full scan mass spectrometry data were recorded from the m/z range of 80–800. A standard dilution curve for quantification of doxorubicin was done. Statistical analysis of the transport assay results was performed using GraphPad Prism. Source data is provided as Source Data 6. The mass spectrometry data is provided as Supplementary Data 3.
# MRP5 [2] = tested on: MRP5; parameters: method as in PMID 16337112, PMID 15006554, PMID 10893247; settings: ref [25],[29],[30]; cited from earlier work
# hMRP4 = target: T2, hMRP4 (Homo sapiens, UniProt O15439); experiment: MST binding assay, hMRP4
# T2 sequence (O15439 1-1325): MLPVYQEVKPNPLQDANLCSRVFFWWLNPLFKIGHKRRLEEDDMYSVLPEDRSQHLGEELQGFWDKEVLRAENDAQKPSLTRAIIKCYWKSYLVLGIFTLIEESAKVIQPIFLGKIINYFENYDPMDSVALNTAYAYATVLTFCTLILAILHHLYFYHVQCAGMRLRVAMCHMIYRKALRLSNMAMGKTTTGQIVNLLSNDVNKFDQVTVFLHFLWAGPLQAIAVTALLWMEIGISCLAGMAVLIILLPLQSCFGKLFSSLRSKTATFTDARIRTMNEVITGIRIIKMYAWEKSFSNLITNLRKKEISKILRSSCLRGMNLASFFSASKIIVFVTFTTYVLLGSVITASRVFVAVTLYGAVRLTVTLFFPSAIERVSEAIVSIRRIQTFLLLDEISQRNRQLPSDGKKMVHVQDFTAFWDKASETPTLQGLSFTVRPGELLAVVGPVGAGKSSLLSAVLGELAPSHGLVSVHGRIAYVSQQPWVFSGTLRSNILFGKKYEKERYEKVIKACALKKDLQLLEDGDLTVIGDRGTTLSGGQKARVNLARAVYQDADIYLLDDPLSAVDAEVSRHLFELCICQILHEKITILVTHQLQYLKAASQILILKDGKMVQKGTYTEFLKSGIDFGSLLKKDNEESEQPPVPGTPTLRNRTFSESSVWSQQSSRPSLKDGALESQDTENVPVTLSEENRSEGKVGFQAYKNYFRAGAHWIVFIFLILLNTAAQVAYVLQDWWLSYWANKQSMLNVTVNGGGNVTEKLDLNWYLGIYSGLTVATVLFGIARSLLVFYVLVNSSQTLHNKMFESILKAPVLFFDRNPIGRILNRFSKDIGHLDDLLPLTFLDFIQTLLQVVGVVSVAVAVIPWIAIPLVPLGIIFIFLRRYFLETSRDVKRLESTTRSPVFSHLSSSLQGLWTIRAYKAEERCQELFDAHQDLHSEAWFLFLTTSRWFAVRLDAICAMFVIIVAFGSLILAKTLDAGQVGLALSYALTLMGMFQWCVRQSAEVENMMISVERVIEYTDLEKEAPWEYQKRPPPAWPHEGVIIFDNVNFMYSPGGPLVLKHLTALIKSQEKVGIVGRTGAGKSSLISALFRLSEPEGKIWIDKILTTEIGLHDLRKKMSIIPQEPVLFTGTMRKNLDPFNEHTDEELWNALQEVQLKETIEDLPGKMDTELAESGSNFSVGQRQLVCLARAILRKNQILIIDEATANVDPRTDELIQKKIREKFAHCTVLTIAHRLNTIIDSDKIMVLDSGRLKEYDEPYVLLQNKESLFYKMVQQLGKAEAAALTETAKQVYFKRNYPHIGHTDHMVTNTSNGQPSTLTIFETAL
compound,measurement,setting,value
O=c1[nH]cc(F)c(=O)[nH]1 [5-fluorouracil],"intracellular drug concentration on reducing endogenous MRP5, in words",MRP5 [1],notably increase the intracellular concentrations
Nc1ncnc2c1ncn2CCOCP(=O)(O)O [9-(2-phosphonomethoxyethyl) adenine],"transport by hMRP5, in words","hMRP5; antiviral monophosphate nucleotide analog, ref [18]",leading to antiviral multidrug resistance
"COc1cccc2c1C(=O)c1c(O)c3c(c(O)c1C2=O)C[C@@](O)(C(=O)CO)C[C@@H]3O[C@H]1C[C@H](N)[C@H](O)[C@H](C)O1 [Doxorubicin, doxorubicin]",Kd,hMRP5-Δ1-94,53.5 ± 22.9 µM
same,"Doxorubicin concentration in oocyte extract, GFP-hMRP5",GFP-hMRP5; replicate 1,323.646 nM
same,"Doxorubicin concentration in oocyte extract, GFP-hMRP5",GFP-hMRP5; replicate 2,292.08 nM
same,"Doxorubicin concentration in oocyte extract, GFP-hMRP5",GFP-hMRP5; replicate 3,493.92 nM
same,"Doxorubicin concentration in oocyte extract, GFP-hMRP5",GFP-hMRP5; replicate 4,266.323 nM
same,"efflux by hMRP5 / contribution to drug resistance, in words",hMRP5,directly contribute to cancer drug resistance through the efflux
CN(C)C(=O)CCSC(SCCC(=O)O)c1cccc(/C=C/c2ccc3ccc(Cl)cc3n2)c1 (stereo not shown) [MK-571],"inhibition of MRP5 transport activity, in words",MRP5 [2],reported to inhibit the transport activity of MRP5
"CCCCC[C@H](O)/C=C/[C@H]1[C@H](O)CC(=O)[C@@H]1CCCCCCC(=O)O [PGE1, prostaglandin E1]",Kd,hMRP4,3.73 ± 0.66 µM
same,"binding affinity to hMRP4, in words","hMRP4; MST, three independent measurements",hMRP4 could capture prostaglandin E1 (PGE1)
"COc1cc2c(cc1OC)-c1c/c(=N\c3c(C)cc(C)cc3C)n(C)c(=O)n1CC2 [Trequinsin, trequinsin]",Kd,"hMRP5-Δ1-94; digitonin-purified hMRP5-Δ1-94-8xHis, HEPES buffer, RED-tris-NTA 2nd Generation dye, 15 min at room temperature, 3% LED/excitation power, medium MST power, mean ± SEM of three independent measurements, read-out: binding affinity (MST), KD value",42.4 ± 17.5 µM
same,"inhibition of MRP5 transport activity, in words",MRP5 [2],reported to inhibit the transport activity of MRP5
"Nc1nc2c(ncn2[C@@H]2O[C@@H]3COP(=O)(O)O[C@H]3[C@H]2O)c(=O)[nH]1 [cGMP, cyclic GMP]","binding affinity to hMRP5, in words",hMRP5-Δ1-94,relatively low binding affinity
N.N.[Cl][Pt][Cl] [cisplatin],"efflux by hMRP5 / contribution to drug resistance, in words",hMRP5,directly contribute to cancer drug resistance through the efflux
CN(Cc1cnc2nc(N)nc(N)c2n1)c1ccc(C(=O)N[C@@H](CCC(=O)O)C(=O)O)cc1 [methotrexate],"efflux by hMRP5 / contribution to drug resistance, in words",hMRP5,directly contribute to cancer drug resistance through the efflux
Nc1nc2[nH]cc(CCc3ccc(C(=O)N[C@@H](CCC(=O)O)C(=O)O)cc3)c2c(=O)[nH]1 [pemetrexed],"intracellular drug concentration on reducing endogenous MRP5, in words",MRP5 [1],notably increase the intracellular concentrations
CCCN(CCC)S(=O)(=O)c1ccc(C(=O)O)cc1 [probenecid],"inhibition of MRP5 transport activity, in words",MRP5 [2],reported to inhibit the transport activity of MRP5
CC(=O)[C@H]1CC[C@H]2[C@@H]3CCC4=CC(=O)CC[C@]4(C)[C@H]3CC[C@]12C [progesterone],"binding affinity to hMRP5, in words",hMRP5-Δ1-94,relatively low binding affinity
CCCc1nn(C)c2c(=O)[nH]c(-c3cc(S(=O)(=O)N4CCN(C)CC4)ccc3OCC)nc12 [sildenafil],"inhibition of MRP5 transport activity, in words",MRP5 [2],reported to inhibit the transport activity of MRP5
C[C@]12CC[C@H]3[C@@H](CCC4=CC(=O)CC[C@@]43C)[C@@H]1CC[C@@H]2O [testosterone],"binding affinity to hMRP5, in words",hMRP5-Δ1-94,relatively low binding affinity
CCCOc1ccccc1-c1nc2nn[nH]c2c(=O)[nH]1 [zaprinast],"inhibition of MRP5 transport activity, in words",MRP5 [2],reported to inhibit the transport activity of MRP5
